# Measurements reported in ChEMBL document CHEMBL5034037, “Synthesis, Characterization, and Preclinical Evaluation of a Small-Molecule Prostate-Specific Membrane Antigen-Targeted Monomethyl Auristatin E Conjugate” (J Med Chem, 2021).
# pIC50: −log10 of the molar value. Where “and” joins values, the source holds several entries; their conditions need not be identical. Equal entries are not always repeated. *1 amine or outer side, *2 acyl side, *3 side chain or, on linkers, in order; H or OH if unused. Where a SMILES comes first, the peptide text is derived from it. [ ]: non-standard residue; d: D form. The star is where a group is joined. GluureaLys(ε-3-ClBenzyl) = O=C(O)CC[C@H](NC(=O)N[C@@H](CCCCN(Cc1cccc(Cl)c1)*)C(=O)O)C(=O)O; Dolaproine = CO[C@@H]([C@@H]1CCCN1)[C@@H](C)C(=O)O; Dil = CC[C@H](C)[C@H](NC)[C@@H](CC(=O)O)OC; X1 = O=C(CCCc1cn(CCCN[*:1])nn1)[*:2]; PABC = O=C(OCc1ccc(N[*:1])cc1)[*:2]; X2 = C[C@@H](N*)[C@@H](O)c1ccccc1; Cit = NC(=O)NCCC[C@H](N)C(=O)O; Suc = O=C(CCC(=O)[*:2])[*:1]; NMeV = CN[C@H](C(=O)O)C(C)C; Ahx = NCCCCCC(=O)O
# How the values were obtained:
# [1] = Acute toxicity in iv dosed Wistar rat assessed as median mortality dose; format: organism-based; details: in vivo
# Salmonella typhimurium [2] = test: Mutagenecity in Salmonella typhimurium TA97 without metabolic activation system at 100 ug/ml by Ames test; format: toxicity, organism-based; details: salmonella enterica subsp. enterica serovar typhimurium; dose 100 µg/ml
# [3] = Antitumor activity against human 22Rv1 cells xenografted in mouse assessed as tumour growth inhibition at 10 mg/kg,ip daily treated for 5 days after 18 days of tumor implantation measured upto 10 days; format: functional, CWR22R; details: 22Rv1, ip, 120 h, time 5 day, read-out: TGI
# [4] = Toxicity in rat assessed as morphological changes in peritoneum at 150 to 225 microg/kg, iv; format: tissue-based; details: in vivo, dose 150-225 µg/kg
# [5] = Half life in Wistar rat at 1.5 mg/kg, iv; format: ADME, organism-based; details: in vivo
# Salmonella typhimurium [6] = test: Mutagenecity in Salmonella typhimurium TA97 without metabolic activation system at 1 ug/ml by Ames test; format: toxicity, organism-based; details: salmonella enterica subsp. enterica serovar typhimurium; dose 1 µg/ml
# [7] = Toxicity in rabbit assessed as morphological changes in spleen pulp at 81 to 122 microg/kg, iv; format: tissue-based, Oryctolagus cuniculus; details: in vivo, dose 81-122 µg/kg
# [8] = Toxicity in rabbit assessed as morphological changes in lungs at 81 to 122 microg/kg, iv; design: species or system Oryctolagus cuniculus; details: in vivo, dose 81-122 µg/kg
# [9] = Toxicity in rat assessed as morphological changes in gastric wall mucosa at 150 to 225 microg/kg, iv; details: in vivo, dose 150-225 µg/kg
# Cytochrome P450 2C19 = Cytochrome P450 2C19 (Homo sapiens, UniProt P33261); test: Drug metabolism assessed as human liver microsome CYP2C19-mediatd metabolism; format: ADME; details: microsomes
# [10] = Toxicity in rat assessed as morphological changes in capsule of the kidney at 150 to 225 microg/kg, iv; format: tissue-based; details: in vivo, dose 150-225 µg/kg
# [11] = Chronic toxicity in rabbit assessed as mortality rate at 5.4 microg/kg, iv dosed measured at day 4; format: organism-based, Oryctolagus cuniculus; details: in vivo, 0.0054 mg/kg, dose 5.4 µg/kg, read-out: Activity
# [12] = Toxicity in mouse xenografted with human 22Rv1 cells assessed as early fell at 0.6 mg/kg, ip daily treated for 5 days after 18 days of tumor implantation measured upto 10 days; format: organism-based, CWR22R; details: in vivo, 120 h, time 5 day
# [13] = Chronic toxicity in rat assessed as change in acidity at […], iv administered once every 3 weeks for 3 months; format: organism-based; details: in vivo, 504 h, dose lower 150 mg/kg
# [14] = Clearance in rabbit at 0.81 mg/kg, iv; format: ADME, organism-based, Oryctolagus cuniculus; details: in vivo
# Cathepsin B = Cathepsin B (Homo sapiens, UniProt P07858); test: Stability of compound at pH 3.6 assessed as recombinant cathepsin B (unknown origin) mediated hydrolysis half life by HPLC-MS analysis; format: ADME
# CWR22R = test: Antitumor activity against human 22Rv1 cells xenografted in mouse assessed as tumour growth inhibition at 0.3 mg/kg, ip daily treated for 5 days after 18 days of tumor implantation measured upto 10 days; format: functional; details: 22Rv1, ip, 120 h, time 5 day, read-out: TGI
# [15] = Volume of distribution in Wistar rat at 1.5 mg/kg, iv; format: ADME, organism-based; details: in vivo
# [16] = Toxicity in rabbit assessed as morphological changes in adrenal medulla at 81 to 122 microg/kg, iv; design: species or system Oryctolagus cuniculus; details: in vivo, dose 81-122 µg/kg
# Cytochrome P450 2C8 [17] = molecular target: T1, Cytochrome P450 2C8 (Homo sapiens, UniProt P10632); test: Inhibition of CYP2C8 in human liver microsome using paclitaxel as substrate; format: ADME, microsomes
# T1 sequence (P10632 whole entry): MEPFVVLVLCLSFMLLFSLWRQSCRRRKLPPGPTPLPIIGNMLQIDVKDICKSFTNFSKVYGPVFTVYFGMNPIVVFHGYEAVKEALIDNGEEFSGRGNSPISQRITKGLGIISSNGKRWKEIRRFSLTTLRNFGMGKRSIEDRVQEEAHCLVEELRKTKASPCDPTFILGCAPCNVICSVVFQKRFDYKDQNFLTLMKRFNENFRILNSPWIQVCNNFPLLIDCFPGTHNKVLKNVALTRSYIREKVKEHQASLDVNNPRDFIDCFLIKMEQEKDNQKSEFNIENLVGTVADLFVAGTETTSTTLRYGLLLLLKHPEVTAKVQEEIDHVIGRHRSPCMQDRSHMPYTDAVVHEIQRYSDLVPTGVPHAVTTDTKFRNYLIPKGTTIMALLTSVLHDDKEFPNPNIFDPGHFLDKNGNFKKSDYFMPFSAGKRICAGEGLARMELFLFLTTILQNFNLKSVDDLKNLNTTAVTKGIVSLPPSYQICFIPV
# Salmonella typhimurium [18] = test: Mutagenecity in Salmonella typhimurium TA97 without metabolic activation system at 10000 ug/ml by Ames test; format: toxicity, organism-based; details: salmonella enterica subsp. enterica serovar typhimurium; dose 10000 µg/ml
# [19] = Toxicity in rabbit assessed as morphological changes in diameter of aorta at 81 to 122 microg/kg, iv; format: tissue-based, Oryctolagus cuniculus; details: in vivo, dose 81-122 µg/kg
# Cytochrome P450 2C8 [20] = molecular target: T1, Cytochrome P450 2C8; test: Drug metabolism assessed as human liver microsome CYP2C8-mediatd metabolism; format: ADME; details: microsomes
# [21] = Toxicity in rat assessed as morphological changes in liver at 150 to 225 microg/kg, iv; format: tissue-based; details: in vivo, dose 150-225 µg/kg
# [22] = Ratio of AUC (t to infinity) to AUC (0 to infinity) in rabbit plasma at 0.81 mg/kg, iv; format: ADME, organism-based, Oryctolagus cuniculus; details: in vivo
# [23] = Toxicity in rat assessed as morphological changes in loops of colon at 150 to 225 microg/kg, iv; format: tissue-based; details: in vivo, dose 150-225 µg/kg
# Cytochrome P450 1A2 [24] = molecular target: T2, Cytochrome P450 1A2 (Homo sapiens, UniProt P05177); test: Inhibition of CYP1A2 in human liver microsome using phenacetin as substrate; format: ADME, microsomes
# T2 sequence (P05177 whole entry): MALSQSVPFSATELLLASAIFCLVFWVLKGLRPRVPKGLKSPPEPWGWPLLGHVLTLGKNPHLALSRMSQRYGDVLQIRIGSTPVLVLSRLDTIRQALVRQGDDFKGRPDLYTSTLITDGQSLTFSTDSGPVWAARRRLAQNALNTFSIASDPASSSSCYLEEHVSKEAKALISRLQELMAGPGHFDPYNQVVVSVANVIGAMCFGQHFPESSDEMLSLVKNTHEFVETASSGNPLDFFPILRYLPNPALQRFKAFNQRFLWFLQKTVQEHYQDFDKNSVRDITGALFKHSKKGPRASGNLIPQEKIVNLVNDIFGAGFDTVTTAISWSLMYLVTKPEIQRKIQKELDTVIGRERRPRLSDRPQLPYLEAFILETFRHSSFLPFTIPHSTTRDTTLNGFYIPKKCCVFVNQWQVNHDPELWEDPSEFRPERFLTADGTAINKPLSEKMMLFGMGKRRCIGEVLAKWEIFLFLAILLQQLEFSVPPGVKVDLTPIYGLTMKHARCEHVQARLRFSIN
# Salmonella typhimurium [25] = test: Mutagenecity in Salmonella typhimurium TA100 in presence of metabolic activation system at 10000 ug/ml by Ames test; format: toxicity, organism-based; details: salmonella enterica subsp. enterica serovar typhimurium; dose 10000 µg/ml
# Cytochrome P450 1A2 [26] = molecular target: T2, Cytochrome P450 1A2; test: Drug metabolism assessed as human liver microsome CYP1A2-mediatd metabolism; format: ADME; details: microsomes
# [27] = AUC (0 to infinity) in rabbit at 0.81 mg/kg, iv; format: ADME, organism-based, Oryctolagus cuniculus; design: time infinity, route intravenous, dose 0.81 mg/kg; details: in vivo
# [28] = Antitumor activity against human 22Rv1 cells xenografted in mouse assessed as tumour growth inhibition at 0.3 mg/kg, ip daily treated for 5 days after 18 days of tumor implantation measured upto 15 days; format: functional, CWR22R; details: 22Rv1, ip, 120 h, time 5 day, read-out: TGI
# Sequence of Cytochrome P450 2C19 (P33261 whole entry): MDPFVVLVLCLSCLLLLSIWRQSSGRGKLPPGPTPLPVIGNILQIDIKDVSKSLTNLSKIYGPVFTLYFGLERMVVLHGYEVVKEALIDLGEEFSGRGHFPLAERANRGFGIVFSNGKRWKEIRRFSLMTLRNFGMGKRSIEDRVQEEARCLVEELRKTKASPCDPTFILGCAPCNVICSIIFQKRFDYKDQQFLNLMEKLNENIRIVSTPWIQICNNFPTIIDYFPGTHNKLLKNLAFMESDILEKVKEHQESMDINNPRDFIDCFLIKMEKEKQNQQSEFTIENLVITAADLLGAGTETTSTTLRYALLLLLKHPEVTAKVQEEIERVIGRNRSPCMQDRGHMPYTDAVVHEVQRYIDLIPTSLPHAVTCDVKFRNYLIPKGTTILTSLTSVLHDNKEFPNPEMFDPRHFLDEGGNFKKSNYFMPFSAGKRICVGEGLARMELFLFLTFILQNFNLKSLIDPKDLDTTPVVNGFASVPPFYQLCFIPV
smiles,measurement,setting,value
CC[C@H](C)[C@@H]([C@@H](CC(=O)N1CCC[C@H]1[C@H](OC)[C@@H](C)C(=O)N[C@H](C)[C@@H](O)c1ccccc1)OC)N(C)C(=O)[C@@H](NC(=O)[C@H](C(C)C)N(C)C(=O)OCc1ccc(NC(=O)[C@H](CCCNC(N)=O)NC(=O)[C@@H](NC(=O)CCCc2cn(CCCNC(=O)[C@H](Cc3ccc(O)cc3)NC(=O)[C@H](Cc3ccccc3)NC(=O)CCC(=O)NCCCCCC(=O)N(CCCC[C@H](NC(=O)N[C@@H](CCC(=O)O)C(=O)O)C(=O)O)Cc3cccc(Cl)c3)nn2)C(C)C)cc1)C(C)C ({GluureaLys(ε-3-ClBenzyl)-Ahx-Suc}-FY[X1]V[Cit][PABC][NMeV]V[Dil][Dolaproine]-X2),LD50,[1],4.9 mg/kg and 2.2 µmol/kg
same,Activity,Salmonella typhimurium [2],Non-Toxic
same,inhibition in vivo at 10 mg/kg,[3],84%
same,Activity,[4],Non-Toxic
same,half-life,[5],4.7 h
same,Activity,Salmonella typhimurium [6],Non-Toxic
same,Activity,[7],Non-Toxic
same,Activity,[8],Non-Toxic
same,Activity,[9],Non-Toxic
same,Drug metabolism,Cytochrome P450 2C19,Metabolite_Notdetected
same,Activity,[10],Non-Toxic
same,mortality at 4 day,[11],100%
same,Activity,[12],Toxic
same,Activity,[13],Toxic
same,clearance,[14],0.4 mL/min/kg
same,half-life,Cathepsin B,0.417 h
same,inhibition in vivo at 0.3 mg/kg,CWR22R,70%
same,Vd,[15],0.126 L/kg
same,Activity,[16],Non-Toxic
same,pIC50,Cytochrome P450 2C8 [17],< 4.60
same,Activity,Salmonella typhimurium [18],Non-Toxic
same,Activity,[19],Non-Toxic
same,Drug metabolism,Cytochrome P450 2C8 [20],Metabolite_Notdetected
same,Activity,[21],Non-Toxic
same,Ratio,[22],13%
same,Activity,[23],Non-Toxic
same,pIC50,Cytochrome P450 1A2 [24],< 4.60
same,Activity,Salmonella typhimurium [25],Non-Toxic
same,Drug metabolism,Cytochrome P450 1A2 [26],Metabolite_Notdetected
same,AUC(0-inf),[27],35000 ng·h/mL
same,inhibition in vivo at 0.3 mg/kg,[28],77.4%
